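The compound was tested at five concentrations on cells cultured in 96-well plates, with a 48-hour exposure period. The concentration for 50% growth inhibition is given as GI50.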 Activity calls are given as the source filed them. Rule as the data show it: active = GI50 up to about 1.1 µM and inactive = higher.
Tests used:
Test in all cases: NCI tumour cell line growth inhibition, 48 h
ACHN = test system: ACHN
CAKI-1 = test system: CAKI-1
HCT-116 = test system: HCT-116
HL-60 = test system: HL-60
HOP-62 = test system: HOP-62
HOP-92 = test system: HOP-92
K562 = test system: K562
KM12 = test system: KM12
LOX IMVI = test system: LOX IMVI
MOLT-4 = test system: MOLT-4
Malme-3M = test system: Malme-3M
NCI-H522 = test system: NCI-H522
OVCAR-5 = test system: OVCAR-5
OVCAR-8 = test system: OVCAR-8
PC-3 = test system: PC-3
RXF 393 = test system: RXF 393
SK-OV-3 = test system: SK-OV-3
T47D = test system: T47D
TK-10 = test system: TK-10
UACC-257 = test system: UACC-257

Measured: GI50

Cc1cc(C)n(-c2nc(C)c(CCO)c(=O)[nH]2)n1
inactive: ACHN > 100 µM | CAKI-1 > 10 µM | HCT-116 > 100 µM | HL-60 > 100 µM | HOP-62 > 100 µM | HOP-92 > 100 µM | K562 > 100 µM | KM12 > 100 µM | LOX IMVI > 100 µM | MOLT-4 > 100 µM | Malme-3M > 100 µM | NCI-H522 > 100 µM | OVCAR-5 > 100 µM | OVCAR-8 > 100 µM | PC-3 > 100 µM | RXF 393 > 100 µM | SK-OV-3 > 100 µM | T47D > 100 µM | TK-10 > 100 µM | UACC-257 > 100 µM

O=C(Nc1sccc1S(=O)(=O)c1ccc(Cl)cc1)c1ccc(F)cc1F
inactive: ACHN 32.1 µM | CAKI-1 26.2 µM | HCT-116 45.8 µM | HL-60 > 100 µM | HOP-62 24.9 µM | HOP-92 19.5 µM | K562 18 µM | KM12 > 100 µM | LOX IMVI > 100 µM | MOLT-4 20.4 µM | Malme-3M 31.9 µM | NCI-H522 20.3 µM | OVCAR-5 27.8 µM | OVCAR-8 30.9 µM | PC-3 27.2 µM | RXF 393 21.7 µM | SK-OV-3 21.9 µM | T47D 31.8 µM | TK-10 20.9 µM | UACC-257 > 100 µM

O=C1c2ccccc2C(=O)N1c1ccc(OCCN2CCCCC2)cc1
inactive: ACHN > 100 µM | CAKI-1 > 100 µM | HCT-116 > 100 µM | HL-60 > 100 µM | HOP-62 > 100 µM | HOP-92 > 100 µM | K562 > 100 µM | KM12 > 100 µM | LOX IMVI > 100 µM | MOLT-4 > 100 µM | Malme-3M > 100 µM | NCI-H522 > 100 µM | OVCAR-5 > 100 µM | OVCAR-8 > 100 µM | PC-3 > 100 µM | RXF 393 > 100 µM | SK-OV-3 > 100 µM | T47D > 100 µM | TK-10 > 100 µM | UACC-257 > 100 µM

N#CC1(C#N)C2(c3ccccc3)OC(c3ccccc3)(c3cc4ccccc4cc32)C1(C#N)C#N
inactive: ACHN 11.8 µM | CAKI-1 7.91 µM | HCT-116 7.03 µM | HL-60 2.37 µM | HOP-62 20.7 µM | HOP-92 1.52 µM | K562 2.86 µM | KM12 7.85 µM | LOX IMVI 4.91 µM | MOLT-4 1.71 µM | Malme-3M 18.1 µM | NCI-H522 3.01 µM | OVCAR-5 15.8 µM | OVCAR-8 8.3 µM | PC-3 17.1 µM | RXF 393 5.51 µM | SK-OV-3 21.1 µM | T47D 13.6 µM | TK-10 16.2 µM | UACC-257 27.5 µM

O=[N+]([O-])C(=C1NCCN1)/C(Cl)=C(\Cl)Br
inactive: ACHN 38.2 µM | CAKI-1 16.3 µM | HCT-116 28.8 µM | HL-60 10.6 µM | HOP-62 > 100 µM | HOP-92 34.4 µM | K562 5.33 µM | KM12 > 100 µM | LOX IMVI 15.7 µM | MOLT-4 22.3 µM | Malme-3M 36.9 µM | NCI-H522 19.1 µM | OVCAR-5 > 100 µM | OVCAR-8 40.3 µM | PC-3 > 59.4 µM | RXF 393 14.1 µM | SK-OV-3 > 100 µM | T47D 17.5 µM | TK-10 > 72.4 µM | UACC-257 > 49.8 µM

COc1ccc2c(C(=O)c3c(C)n(CCN4CCOCC4)c4ccccc34)cccc2c1
inactive: ACHN 37.5 µM | CAKI-1 59 µM | HCT-116 25.5 µM | HL-60 4.93 µM | HOP-62 71.9 µM | HOP-92 19.8 µM | K562 18.7 µM | KM12 22.9 µM | LOX IMVI 18.9 µM | MOLT-4 19.4 µM | Malme-3M 17.5 µM | NCI-H522 18.7 µM | OVCAR-5 > 100 µM | OVCAR-8 18.8 µM | PC-3 12.7 µM | RXF 393 22.1 µM | SK-OV-3 39.6 µM | T47D 17.4 µM | TK-10 58.5 µM | UACC-257 20.3 µM

COc1ccc(Nc2nc3cc(C(F)(F)F)ccc3n3cccc23)cc1OC
inactive: ACHN 17.7 µM | CAKI-1 27.9 µM | HCT-116 12.1 µM | HL-60 19.8 µM | HOP-62 22.3 µM | HOP-92 15.7 µM | K562 9.04 µM | KM12 10.3 µM | LOX IMVI 4.7 µM | MOLT-4 7.85 µM | Malme-3M 24.2 µM | NCI-H522 16 µM | OVCAR-5 18.6 µM | OVCAR-8 23.3 µM | PC-3 10.6 µM | RXF 393 10.8 µM | SK-OV-3 27.9 µM | T47D 6.37 µM | TK-10 12.6 µM | UACC-257 17.5 µM

— ChEMBL document CHEMBL1201862, “PubChem BioAssay data set” (2004)
